Data published in patent US11840533B2, “Pyridinone-based epigenetic modifiers and uses thereof” (THE BOARD OF TRUSTEES OF THE UNIVERSITY OF ILLINOIS, priority 2017, dated 2023).

Experiments:
PBRM1(5) = PBRM1(5) (Homo sapiens (Human), UniProt Q86U86); assay: BROMOscan; assay type: binding
Excerpt: (§1) BROMOscan is a bromodomain inhibitor binding platform provided by DiscoverX that measures the interactions between compounds and a panel of bromodomain proteins.

CREBBP = CREBBP (Homo sapiens (Human), UniProt Q92793); assay: BROMOscan; assay type: binding
Excerpt: as §1

TAF1(2) = TAF1(2) (Homo sapiens (Human), UniProt P21675); assay: BROMOscan; assay type: binding
Chain of TAF1(2) (P21675 1519-1628): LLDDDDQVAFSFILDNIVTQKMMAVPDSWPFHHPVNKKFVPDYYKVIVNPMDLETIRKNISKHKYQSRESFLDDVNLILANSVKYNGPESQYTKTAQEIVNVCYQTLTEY
Excerpt: as §1

BAZ2A = BAZ2A (Homo sapiens (Human), UniProt Q9UIF9); assay: BROMOscan; assay type: binding
Chain of BAZ2A (Q9UIF9 whole entry): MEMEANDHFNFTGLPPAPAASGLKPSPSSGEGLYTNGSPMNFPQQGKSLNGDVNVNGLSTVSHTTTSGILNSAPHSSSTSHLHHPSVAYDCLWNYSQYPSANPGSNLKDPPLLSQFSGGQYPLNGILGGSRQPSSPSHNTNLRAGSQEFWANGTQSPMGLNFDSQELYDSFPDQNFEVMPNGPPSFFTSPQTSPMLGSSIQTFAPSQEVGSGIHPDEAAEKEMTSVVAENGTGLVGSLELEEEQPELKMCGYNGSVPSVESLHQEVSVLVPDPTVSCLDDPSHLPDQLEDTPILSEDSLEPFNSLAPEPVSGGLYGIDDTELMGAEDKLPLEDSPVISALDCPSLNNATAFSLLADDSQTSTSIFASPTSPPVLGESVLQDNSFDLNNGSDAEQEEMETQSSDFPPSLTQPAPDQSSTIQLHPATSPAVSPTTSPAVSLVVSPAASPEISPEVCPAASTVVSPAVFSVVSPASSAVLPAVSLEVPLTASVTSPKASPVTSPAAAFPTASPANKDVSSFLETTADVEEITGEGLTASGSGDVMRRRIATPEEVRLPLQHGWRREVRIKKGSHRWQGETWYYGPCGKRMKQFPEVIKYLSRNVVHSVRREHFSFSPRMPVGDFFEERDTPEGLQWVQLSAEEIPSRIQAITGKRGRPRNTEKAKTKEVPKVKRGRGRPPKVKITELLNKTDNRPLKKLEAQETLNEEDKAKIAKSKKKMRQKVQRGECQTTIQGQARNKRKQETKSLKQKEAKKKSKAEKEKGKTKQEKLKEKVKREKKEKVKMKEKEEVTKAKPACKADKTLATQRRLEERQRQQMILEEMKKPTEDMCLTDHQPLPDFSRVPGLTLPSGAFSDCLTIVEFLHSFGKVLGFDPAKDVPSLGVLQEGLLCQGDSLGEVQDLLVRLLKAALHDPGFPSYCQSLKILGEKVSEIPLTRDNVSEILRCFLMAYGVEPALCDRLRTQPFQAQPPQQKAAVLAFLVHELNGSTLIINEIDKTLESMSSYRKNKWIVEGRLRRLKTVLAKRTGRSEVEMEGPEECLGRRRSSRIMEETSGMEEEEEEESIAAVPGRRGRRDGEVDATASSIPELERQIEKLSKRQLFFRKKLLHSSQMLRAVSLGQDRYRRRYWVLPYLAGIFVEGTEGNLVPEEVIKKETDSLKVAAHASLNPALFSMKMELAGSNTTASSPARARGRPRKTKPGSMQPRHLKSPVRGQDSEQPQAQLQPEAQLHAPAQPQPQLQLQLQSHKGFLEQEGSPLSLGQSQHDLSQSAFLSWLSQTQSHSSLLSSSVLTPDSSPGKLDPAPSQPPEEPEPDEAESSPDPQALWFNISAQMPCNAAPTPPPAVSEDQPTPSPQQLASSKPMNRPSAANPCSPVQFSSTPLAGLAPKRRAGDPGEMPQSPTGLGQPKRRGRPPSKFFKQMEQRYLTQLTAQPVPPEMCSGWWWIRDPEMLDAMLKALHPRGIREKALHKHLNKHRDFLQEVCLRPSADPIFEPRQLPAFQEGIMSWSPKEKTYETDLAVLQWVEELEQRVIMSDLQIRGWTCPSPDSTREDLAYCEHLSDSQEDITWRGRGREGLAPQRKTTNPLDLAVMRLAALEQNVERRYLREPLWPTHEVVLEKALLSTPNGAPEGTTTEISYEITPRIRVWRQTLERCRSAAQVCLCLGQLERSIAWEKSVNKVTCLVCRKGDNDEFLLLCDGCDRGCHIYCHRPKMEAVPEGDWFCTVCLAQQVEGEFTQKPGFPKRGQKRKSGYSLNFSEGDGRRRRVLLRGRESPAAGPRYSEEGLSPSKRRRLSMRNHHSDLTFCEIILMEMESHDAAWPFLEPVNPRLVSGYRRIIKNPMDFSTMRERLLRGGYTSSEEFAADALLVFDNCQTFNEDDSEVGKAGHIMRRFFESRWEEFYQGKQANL
Excerpt: as §1

BRD2(1, 2) = BRD2(1, 2) (Homo sapiens (Human), UniProt P25440); assay: BROMOscan; assay type: binding
Excerpt: as §1

CECR2 = CECR2 (Homo sapiens (Human), UniProt Q9BXF3); assay: BROMOscan; assay type: binding
Chain of CECR2 (Q9BXF3 whole entry): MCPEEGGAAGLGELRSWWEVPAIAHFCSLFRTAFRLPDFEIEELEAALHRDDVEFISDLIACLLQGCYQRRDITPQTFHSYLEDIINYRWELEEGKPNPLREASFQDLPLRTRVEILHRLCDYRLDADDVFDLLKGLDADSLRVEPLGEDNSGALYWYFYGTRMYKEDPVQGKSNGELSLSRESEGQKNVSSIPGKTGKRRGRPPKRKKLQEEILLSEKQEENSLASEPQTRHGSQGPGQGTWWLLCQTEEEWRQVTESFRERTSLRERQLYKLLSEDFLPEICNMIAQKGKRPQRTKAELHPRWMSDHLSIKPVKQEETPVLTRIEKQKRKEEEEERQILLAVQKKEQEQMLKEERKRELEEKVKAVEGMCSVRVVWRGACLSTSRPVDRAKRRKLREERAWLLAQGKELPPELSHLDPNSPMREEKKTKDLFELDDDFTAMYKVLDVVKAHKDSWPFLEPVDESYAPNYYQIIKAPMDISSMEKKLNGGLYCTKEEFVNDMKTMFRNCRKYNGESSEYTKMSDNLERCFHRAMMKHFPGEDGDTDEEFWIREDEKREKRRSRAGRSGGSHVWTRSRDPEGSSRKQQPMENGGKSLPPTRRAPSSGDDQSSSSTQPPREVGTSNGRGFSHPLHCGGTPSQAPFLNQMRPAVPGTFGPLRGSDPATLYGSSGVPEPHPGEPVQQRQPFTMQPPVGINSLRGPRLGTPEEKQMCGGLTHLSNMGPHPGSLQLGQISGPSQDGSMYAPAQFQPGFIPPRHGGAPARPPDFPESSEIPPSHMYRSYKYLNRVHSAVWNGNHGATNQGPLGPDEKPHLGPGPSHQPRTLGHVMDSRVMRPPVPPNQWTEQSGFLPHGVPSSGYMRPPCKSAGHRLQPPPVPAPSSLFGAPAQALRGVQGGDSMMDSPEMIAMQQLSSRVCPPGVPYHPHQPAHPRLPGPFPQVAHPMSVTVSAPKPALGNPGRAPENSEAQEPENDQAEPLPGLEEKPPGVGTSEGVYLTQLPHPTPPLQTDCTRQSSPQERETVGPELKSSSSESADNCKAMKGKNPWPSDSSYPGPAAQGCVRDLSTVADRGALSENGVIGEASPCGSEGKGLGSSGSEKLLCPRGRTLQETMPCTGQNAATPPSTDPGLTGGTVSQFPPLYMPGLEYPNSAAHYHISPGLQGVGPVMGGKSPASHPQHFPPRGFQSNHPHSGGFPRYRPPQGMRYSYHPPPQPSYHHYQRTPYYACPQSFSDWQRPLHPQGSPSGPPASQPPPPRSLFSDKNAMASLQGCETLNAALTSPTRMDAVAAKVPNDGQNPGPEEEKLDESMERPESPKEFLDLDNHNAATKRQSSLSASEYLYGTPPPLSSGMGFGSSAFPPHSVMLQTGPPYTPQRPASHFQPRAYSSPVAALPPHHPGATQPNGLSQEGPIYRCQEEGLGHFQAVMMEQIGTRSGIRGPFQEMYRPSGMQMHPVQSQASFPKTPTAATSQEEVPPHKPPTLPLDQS
Excerpt: as §1

BRDT(1, 2) = BRDT(1, 2) (Homo sapiens (Human), UniProt Q58F21); assay: BROMOscan; assay type: binding
Excerpt: as §1

BRD1 = BRD1 (Homo sapiens (Human), UniProt O95696); assay: BROMOscan; assay type: binding
Excerpt: as §1

BRDT(2) = BRDT(2) (Homo sapiens (Human), UniProt Q58F21); assay: BROMOscan; assay type: binding
Excerpt: as §1

BRD2(1) = BRD2(1) (Homo sapiens (Human), UniProt P25440); assay: BROMOscan; assay type: binding
Excerpt: as §1

TAF1L(2) = TAF1L(2) (Homo sapiens (Human), UniProt Q8IZX4); assay: BROMOscan; assay type: binding
Excerpt: as §1

BRD9 = BRD9 (Homo sapiens (Human), UniProt Q9H8M2); assay: BROMOscan; assay type: binding
Excerpt: as §1

BRD3(2) = BRD3(2) (Homo sapiens (Human), UniProt Q15059); assay: BROMOscan; assay type: binding
Chain of BRD3(2) (Q15059 306-415): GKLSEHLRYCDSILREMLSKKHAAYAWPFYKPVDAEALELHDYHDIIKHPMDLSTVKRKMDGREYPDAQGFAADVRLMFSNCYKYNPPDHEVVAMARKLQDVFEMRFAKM
Excerpt: as §1

BRDT(1) = BRDT(1) (Homo sapiens (Human), UniProt Q58F21); assay: BROMOscan; assay type: binding
Excerpt: as §1

BRPF1 = BRPF1 (Homo sapiens (Human), UniProt P55201); assay: BROMOscan; assay type: binding
Chain of BRPF1 (P55201 whole entry): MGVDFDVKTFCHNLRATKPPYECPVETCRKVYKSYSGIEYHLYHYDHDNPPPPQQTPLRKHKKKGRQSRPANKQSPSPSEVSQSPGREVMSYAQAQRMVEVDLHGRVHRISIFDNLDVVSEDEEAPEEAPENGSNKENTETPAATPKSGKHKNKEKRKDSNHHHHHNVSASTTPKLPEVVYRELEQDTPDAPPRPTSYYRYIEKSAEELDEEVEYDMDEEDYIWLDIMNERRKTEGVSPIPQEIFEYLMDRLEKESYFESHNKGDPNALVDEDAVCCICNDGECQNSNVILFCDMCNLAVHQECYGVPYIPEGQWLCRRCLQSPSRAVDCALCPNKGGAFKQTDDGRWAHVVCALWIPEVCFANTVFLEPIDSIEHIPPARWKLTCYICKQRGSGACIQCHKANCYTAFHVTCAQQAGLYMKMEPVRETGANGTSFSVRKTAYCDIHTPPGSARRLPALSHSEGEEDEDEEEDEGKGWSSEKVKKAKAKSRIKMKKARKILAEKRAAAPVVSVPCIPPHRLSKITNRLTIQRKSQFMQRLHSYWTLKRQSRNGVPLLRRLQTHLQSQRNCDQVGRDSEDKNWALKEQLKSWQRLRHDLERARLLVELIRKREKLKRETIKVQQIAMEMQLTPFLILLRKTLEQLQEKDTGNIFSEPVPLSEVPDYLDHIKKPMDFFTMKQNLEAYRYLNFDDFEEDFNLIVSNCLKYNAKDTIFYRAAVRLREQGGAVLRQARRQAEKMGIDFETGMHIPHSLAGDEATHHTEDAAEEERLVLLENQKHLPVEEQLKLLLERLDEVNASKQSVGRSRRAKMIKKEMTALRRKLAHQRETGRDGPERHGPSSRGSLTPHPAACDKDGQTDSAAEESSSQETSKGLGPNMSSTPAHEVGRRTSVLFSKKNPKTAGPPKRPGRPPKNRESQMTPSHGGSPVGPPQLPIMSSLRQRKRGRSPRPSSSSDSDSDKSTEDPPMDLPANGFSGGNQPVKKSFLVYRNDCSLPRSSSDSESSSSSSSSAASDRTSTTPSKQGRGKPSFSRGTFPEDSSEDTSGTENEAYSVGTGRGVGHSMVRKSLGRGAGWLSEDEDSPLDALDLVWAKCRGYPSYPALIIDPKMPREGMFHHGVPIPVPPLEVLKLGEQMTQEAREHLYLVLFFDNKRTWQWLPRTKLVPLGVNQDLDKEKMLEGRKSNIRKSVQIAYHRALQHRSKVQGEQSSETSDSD
Excerpt: as §1

EP300 = EP300 (Homo sapiens (Human), UniProt Q09472); assay: BROMOscan; assay type: binding
Excerpt: as §1

TRIM24(Bromo.) = TRIM24(Bromo.) (Homo sapiens (Human), UniProt O15164); assay: BROMOscan; assay type: binding
Chain of TRIM24(Bromo.) (O15164 899-1004): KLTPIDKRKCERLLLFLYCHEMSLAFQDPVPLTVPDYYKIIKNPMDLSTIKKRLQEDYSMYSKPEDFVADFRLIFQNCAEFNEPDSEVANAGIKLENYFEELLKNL
Excerpt: as §1

BRD3(1) = BRD3(1) (Homo sapiens (Human), UniProt Q15059); assay: BROMOscan; assay type: binding
Excerpt: as §1

BRD2(2) = BRD2(2) (Homo sapiens (Human), UniProt P25440); assay: BROMOscan; assay type: binding
Chain of BRD2(2) (P25440 344-453): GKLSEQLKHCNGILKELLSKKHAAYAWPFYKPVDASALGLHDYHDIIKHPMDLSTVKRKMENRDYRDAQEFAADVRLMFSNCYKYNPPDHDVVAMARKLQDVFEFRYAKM
Excerpt: as §1

BRD3(1, 2) = BRD3(1, 2) (Homo sapiens (Human), UniProt Q15059); assay: BROMOscan; assay type: binding
Excerpt: as §1

BRD8(1) = BRD8(1) (Homo sapiens (Human), UniProt Q9H0E9); assay: BROMOscan; assay type: binding
Excerpt: as §1

[1] = test system: fulvestrant-resistant MCF7:5C-FR cells; assay: Fulvestrant-resistant breast cancer cell viability (cell proliferation) assay; assay type: cell-based
In short: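 Cells were treated the day after seeding with compounds at 3 nM to 10 uM for 120 h, with 0.1% DMSO vehicle and 1 uM JQ1 as positive control. Hoechst 33342-stained (5 μg/ml, 90 min, 37 C) nuclei were imaged and counted, and cell numbers normalized to vehicle.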

BET family proteins = assay: BROMOscan panel of bromodomain proteins; assay type: binding; conditions: FIG. 6
Excerpt: as §1

[2] = test system: 3D spheroids of fulvestrant-resistant MCF-7:CFR; assay: Growth of 3D spheroids of fulvestrant-resistant MCF-7:CFR; assay type: cell-based; conditions: FIG. 11; vs JQ1 and AZD-5153

Structure (SMILES): CCS(=O)(=O)Nc1cc(-c2cn(C)c3c(=O)[nH]ccc23)cc2c1ccn2C(C)(c1ccccn1)c1ccccn1 [Compound 70]
- Kd (PBRM1(5)): 6.1 µM
- Kd (CREBBP): 110 nM
- Kd (TAF1(2)): 9.1 nM
- Kd (BAZ2A): 3.5 µM
- Kd (BRD2(1, 2)): 0.57 nM
- Kd (CECR2): 6 µM
- Kd (BRDT(1, 2)): 0.23 nM
- Kd (BRD1): 7.7 µM
- Kd (BRDT(2)): 1.4 nM
- Kd (BRD2(1)): 0.27 nM
- Kd (TAF1L(2)): 44 nM
- Kd (BRD9): 3.5 µM
- Kd (BRD3(2)): 0.61 nM
- Kd (BRDT(1)): 0.14 nM
- Kd (BRPF1): 360 nM
- Kd (EP300): 37 nM
- Kd (TRIM24(Bromo.)): 4.4 µM
- Kd (BRD3(1)): 0.34 nM
- Kd (BRD2(2)): 0.77 nM
- Kd (BRD3(1, 2)): 0.27 nM
- Kd (BRD8(1)): 4.9 µM
- IC50 ([1]; 120 h, growth inhibition in fulvestrant-resistant MCF-7:CFR cells, 120 hrs): 0.9 nM
- growth inhibition in comparison with clinical benchmark BET inhibitors ([1]; FIG. 10, vs BMS-98615, ABBV-075, AVR-771, AZD-5153, I-BET-762 and JQ1): superior potency
- binding affinity for BET family (BET family proteins): subnanomolar potency
- efficacy in inhibiting the growth of 3D spheroids [2]: more efficacious than JQ1 and AZD-5153
